Measured values reported in patent US20150313217A1, “CONTROL AGENT FOR PLANT PEST AND/OR PLANT DISEASE” (RIKEN, priority 2012, published 2015).

Test: Aggregation and precipitation of polyglycerin fatty acid ester on storage with oxoacid or organic solvent (Example 17)
Format: physicochemical
Design: key: 1: equivalent aggregation and precipitation to those of the reference were observed; 2: the aggregation and precipitation were approximately ¾ of those of the reference; 3: the aggregation and precipitation were approximately ½ of those of the reference; 4: the aggregation and precipitation were approximately ¼ of those of the reference; 5: no aggregate and precipitate were observed
Conditions: cool dark place, two months, visual
Procedure: A polyglycerin fatty acid ester and phosphoric acid were weighed using an electronic balance and put into a cylindrical plastic container (diameter of […]×height of 77 mm, volume 25 ml) in such a manner that the mixing ratio was 90:10 (mass ratio) (10 mass % of phosphoric acid (approximately 11.1 parts by mass of phosphoric acid per 100 parts by mass of the polyglycerin fatty acid) was added) or 99.9:0.1 (mass ratio) (0.1 mass % of phosphoric acid (approximately 0.1 parts by mass of phosphoric acid per 100 parts by mass of the polyglycerin fatty acid) was added). The total amount was adjusted to 20 ml. Then, the preparation was made uniform by sufficient stirring and mixing. The resultant was left standing in a cool dark place. Two months later, the degree of aggregation and precipitation of the polyglycerin fatty acid ester was visually determined based on the following determination criteria. […] Further, as a reference, a test was conducted by the same method as above using only a polyglycerin fatty acid ester to which no oxoacid or organic solvent was added. Index 1: equivalent aggregation and precipitation to those of the reference were observed. Index 2: the aggregation and precipitation were approximately ¾ of those of the reference.

[1] = adding ratio 0.1 % to polyglycerin fatty acid ester
[2] = adding ratio 10.0 % to polyglycerin fatty acid ester

Structure (SMILES): O=P(O)(O)O [phosphoric acid]
- Result (index): degree of aggregation and precipitation of the polyglycerin fatty acid ester [1]: 4
- Result (index): degree of aggregation and precipitation of the polyglycerin fatty acid ester [2]: 5

Structure (SMILES): CCO [ethyl alcohol]
- Result (index): degree of aggregation and precipitation of the polyglycerin fatty acid ester [1]: 4
- Result (index): degree of aggregation and precipitation of the polyglycerin fatty acid ester [2]: 4

Structure (SMILES): CC(O)C(=O)O (stereo not shown) [lactic acid]
- Result (index): degree of aggregation and precipitation of the polyglycerin fatty acid ester [1]: 4
- Result (index): degree of aggregation and precipitation of the polyglycerin fatty acid ester [2]: 5

Structure (SMILES): CC(=O)O [acetic acid]
- Result (index): degree of aggregation and precipitation of the polyglycerin fatty acid ester [1]: 4
- Result (index): degree of aggregation and precipitation of the polyglycerin fatty acid ester [2]: 5

Structure (SMILES): CCCCCC [normal hexane]
- Result (index): degree of aggregation and precipitation of the polyglycerin fatty acid ester [1]: 3
- Result (index): degree of aggregation and precipitation of the polyglycerin fatty acid ester [2]: 4
